From paper PMC12021451 (Planta Medica, 2025)
Counter-ions that a name gives are not always drawn.

Assay: blood-to-plasma concentration ratio
Format: in vitro ADME, human
Details: range of 4 to 1000 ng/mL

SMILES	Effect of the compound concentration on the Rb value
Cn1c(=O)c2c(ncn2C)n(C)c1=O [Caffeine]	not observed
CN(C)CCCN1c2ccccc2CCc2ccccc21 [Imipramine, imipramine hydrochlorid]	not observed
C/C=C1/C[C@@H](C)[C@](O)(CO)C(=O)OCC2=CC[N@@+]3([O-])CC[C@@H](OC1=O)[C@@H]23 [Retrorsine N -oxide]	no concentration dependency was observed
